This note sets out measurements from PMC6476888, “Design and synthesis of anticancer 1-hydroxynaphthalene-2-carboxanilides with a p53 independent mechanism of action” (Scientific Reports, 2019).

Values joined by “and” are separate entries in the source; they are usually repeats but may differ in a detail not shown here. Identical values can stand only once. “Also recorded” adds a separate entry of the source.

In one test the test system is NHDF. Nature of the test: Cytotoxicity (MTS, 72 h) against normal human fibroblasts. The class given is cell-based. As to conditions: for IC50: Homo sapiens, NHDF, MTS, 72 h incubation.
For another test, the system named is CT-DNA. Nature of the test: Spectrophotometric DNA intercalation assay. The class given is binding, calf. As to conditions: for Changes in absorbance: bound to CT-DNA (18 µM), 1.5 h 37 °C, Tris-HCl pH 7.9; for % hypochromism / Δε: bound to CT-DNA, for CP-31398 first value (312 nm band); for red shift: wavelengths of maximum absorption, individual vs DNA-bound compound. The text has this: The fused aromatic rings of the naphthalene moiety and halogen substituents in aniline may guarantee good intercalating properties[71],[72]. On the other hand, the intercalation of DNA may explain the high activity against both the wild-type and p53 mutants as was reported for a series of styrylquinolines. Binding to DNA causes the bases to mismatch or cleave, which results in the arrest of the cell cycle and apoptosis. The effectiveness of the p53 system is one of the most important factors in the response to therapy. We tested the intercalating properties of the selected compounds in a spectrophotometric assay on calf-thymus DNA. The absorption spectra of the tested compounds in the absence and presence of CT-DNA are presented in Figure S1 Supplementary Information and the spectral properties with doxorubicine and CP-31398 are summarized in Table 2.
For the DNA binding studies, Calf-thymus DNA (CT-DNA) was purchased from Sigma- Aldrich. The lyophilized CT-DNA was dissolved in 10 mM Tris-HCl, pH 7.9, mixed gently and left overnight at 4 °C. The purity of the CT-DNA solution was determined by measuring the ratio of UV absorbance at 260 and 280 nm. […] Then, the concentration of CT-DNA was determined from the absorbance at 260 nm using an extinction coefficient of 6600 M^−1cm^−1. The tested compounds including DOX and CP-31398 were dissolved to a concentration of 8.35 mM in DMSO, which was then used as the stock solution for preparing the various concentrations (25, 12.5, 6 and 3 µM) in 1 mL in 10 mM of Tris-HCl (pH 7.9). Afterwards, 18 µM CT-DNA was added to the prepared solutions, which were incubated for 1.5 h at 37 °C with occasional vortexing. The absorption spectra were measured using a Hitachi U-2900 spectrophotometer in the range of 200–500 nm. All absorption spectra were imported into OriginPro 8.0 and compared.

Broadly, the IC50 is the concentration needed to halve the response being measured. For `O=C(Nc1ccc(F)c(Cl)c1)c1ccc2ccccc2c1O` [5s], the half-maximal inhibitory concentration (IC50) in the test with NHDF is greater than 25 µM. Also, the selectivity index in the test with NHDF (cytotoxicity against the normal cell line vs HCT116) was greater than 30. In addition, in the test with CT-DNA, the Changes in absorbance result is on record as “hypochromism”, the “% hypochromism” value turned out to be 6.5%, the Δε was determined as 255.6 M⁻¹ cm⁻¹ and the red shift was found to be 2 nm.

`O=C(Nc1cc(C(F)(F)F)cc(C(F)(F)F)c1Cl)c1ccc2ccccc2c1O` [5u]: the IC50 with NHDF amounted to 16.3 ± 1.28 µM. In addition, in the test on CT-DNA, the Changes in absorbance result is recorded as “hypochromism”; the “% hypochromism” value is on record as 14%; the Δε was 922.2 M⁻¹ cm⁻¹; the red shift entry was “small red-shift and 2 nm”.

For `O=C(Nc1cc(C(F)(F)F)cc(C(F)(F)F)c1)c1ccc2ccccc2c1O` [7f], the IC50 with NHDF is 3.55 ± 0.76 µM. Besides, in the test on CT-DNA, the Changes in absorbance result is “rather low hypochromic effect; also recorded: hypochromism”; the “% hypochromism” value was determined as 5.7%; the Δε is 244.4 M⁻¹ cm⁻¹; the red shift result was “no wavelength shift and 0 nm”.
